Results from paper PMC11219871, “Epigenetic-based differentiation therapy for Acute Myeloid Leukemia” (Nature Communications, 2024).

Test system: HL-60
Test: CUT&RUN of BRD4, H3K27Ac and H3K9Ac
Assay type: cell-based, human
Conditions: HL-60, 12 h
Experimental: CUT&RUN was performed with the kit CUTANA ChIC/CUT&RUN (Epicypher, 14-1048) following the manufacturer’s instructions. Briefly, 0.5 million of HL-60 cells were harvested and resuspended in 100ul wash buffer [20 mM HEPES pH 7.5, 150 mM NaCl, 0.5 mM Spermidine, supplemented with Protease Inhibitor EDTA-Free tablet (Roche 11836170001)]. Activated Concanavalin A was incubated with cells at room temperature for 10 min to let the cells bind to the beads. For each target protein factor, 0.5 μg of BRD4 CUTANA CUT&RUN antibody (Cat No 13-2003, Epicypher), Acetyl-Histone H3 (Lys 9) (C5B11) rabbit monoclonal antibody diluted 1:50 (Cat No 9649 T, Cell Signaling) or Acetyl-Histone H3 (Lys 27) (D5E4) XP rabbit monoclonal antibody diluted 1:100 (Cat No 8173T, Cell Signaling) was added to each sample and incubated in the antibody buffer (wash buffer +0.01% Digitonin and 2 mM EDTA) overnight at 4 °C. Isotype control IgG was used as a negative control. The beads were then washed twice with digitonin buffer [wash buffer +0.01% Digitonin] and 2.5 μL pAG-MNase was added to each sample. After ten minutes of incubation at room temperature, excessive pAG-MNase was washed out by a two-time digitonin buffer wash. Then targeted chromatin was digested and released from cells by 2 h of incubation with the presence of 2 mM CaCl2 at 4 °C. After incubation with stop buffer [340 mM NaCl, 20 mM EDTA, 4 mM EGTA, 50 μg/mL RNase A, 50 μg/mL Glycogen] for 10 min at 37 °C the supernatant containing CUT&RUN-enriched DNA was purified using the CUTANA DNA Purification kit (Epicypher). Finally, Illumina sequencing libraries were prepared from 6 ng of purified CUT&RUN DNA using NEBNext UltraTM II DNA Library Prep Kit for Illumina, following the manufacturer’s instructions. For BRD4, some modifications were added following the protocol of Nan Liu (Harvard University; 10.17504/protocols.io.wvgfe3w). Libraries were sequenced using NEXTseq500 (Illumina).
The Cut&Run samples were analyzed using the CUT&RUN tools pipeline with default settings and no filtering for 120 bp fragments. Peak calling was performed on deduplicated reads with macs2 version 2.2.6 using the respective IgG samples as control, narrow peak calling and paired-end settings, and a threshold of q = 0.01.
Specifically, 12 chromatin states, based on the combination of 6 histone marks, for 38 AML samples were used[59]. The vast majority of the regions could be entirely annotated to a single chromatin state while some could be entirely annotated to a single chromatin state after the replacement of consecutive chromatin states with similar characteristics with one of them (i.e combination of Transcription Transition / Transcription Elongation / Weak Transcription to Transcription Transition or combination of Heterochromatin; Represesed/ Heterochromatin; Low Signal to Heterochromatin; Repressed etc). The regions that couldn’t be entirely annotated to a single chromatin state or simplified chromatin state were removed. […] We then calculated the percentage of each chromatin state taking into account the width of the regions. As background, we used all the regions of each AML sample and we calculated the percentage of the chromatin states similarly. Finally, we calculated the fold change of each chromatin state as a percentage in the sample to a percentage in the background AML sample.

Structure (SMILES) | BRD4 CUT&RUN peaks | H3K9Ac CUT&RUN peaks | H3K27Ac CUT&RUN peaks
COc1cc2nc(-c3ccc(C)o3)cc(NCC3CCN(c4ncc(C(=O)NO)cn4)CC3)c2cc1OC [CM-444, 2-[4-[[[6,7-dimethoxy-2-(5-methyl-2-furyl)-4-quinolyl]amino]methyl]-1-piperidyl]pyrimidine-5-carbohydroxamic acid] | 19570 | 7568 | 48991
Cc1[nH]c2ccccc2c1CCNCc1ccc(/C=C/C(=O)NO)cc1 [Panobinostat, reference compound] | 16030 | 32775 | 26959
